# Results as given in patent publication US9061030B2, “sGC stimulators” (IRONWOOD PHARMACEUTICALS, INC., priority 2010, dated 2015).
# Target: T1, soluble guanylate cyclase (sGC) (Homo sapiens, UniProt Q02108+Q02153)
# T1 construct: endogenously expressing soluble guanylate cyclase (sGC); endogenous in cells; host or cells: HEK293
# T1 sequence (Q02153 1-619): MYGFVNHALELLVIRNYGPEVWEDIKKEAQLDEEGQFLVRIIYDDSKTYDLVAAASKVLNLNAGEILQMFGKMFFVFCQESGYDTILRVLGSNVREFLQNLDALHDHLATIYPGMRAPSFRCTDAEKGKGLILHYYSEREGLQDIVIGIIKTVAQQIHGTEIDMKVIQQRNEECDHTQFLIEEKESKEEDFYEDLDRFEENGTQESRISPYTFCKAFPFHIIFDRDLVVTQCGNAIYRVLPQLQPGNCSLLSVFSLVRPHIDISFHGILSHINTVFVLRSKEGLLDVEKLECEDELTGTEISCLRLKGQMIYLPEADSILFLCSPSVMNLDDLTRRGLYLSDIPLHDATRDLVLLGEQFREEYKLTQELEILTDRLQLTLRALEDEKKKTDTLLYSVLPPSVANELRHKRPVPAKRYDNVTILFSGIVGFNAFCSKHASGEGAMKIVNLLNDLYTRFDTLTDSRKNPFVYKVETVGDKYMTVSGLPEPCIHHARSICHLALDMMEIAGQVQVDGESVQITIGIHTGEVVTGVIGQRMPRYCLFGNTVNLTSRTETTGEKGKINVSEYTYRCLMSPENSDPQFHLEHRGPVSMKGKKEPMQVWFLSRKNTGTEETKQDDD
# T1 sequence (Q02108 1-690): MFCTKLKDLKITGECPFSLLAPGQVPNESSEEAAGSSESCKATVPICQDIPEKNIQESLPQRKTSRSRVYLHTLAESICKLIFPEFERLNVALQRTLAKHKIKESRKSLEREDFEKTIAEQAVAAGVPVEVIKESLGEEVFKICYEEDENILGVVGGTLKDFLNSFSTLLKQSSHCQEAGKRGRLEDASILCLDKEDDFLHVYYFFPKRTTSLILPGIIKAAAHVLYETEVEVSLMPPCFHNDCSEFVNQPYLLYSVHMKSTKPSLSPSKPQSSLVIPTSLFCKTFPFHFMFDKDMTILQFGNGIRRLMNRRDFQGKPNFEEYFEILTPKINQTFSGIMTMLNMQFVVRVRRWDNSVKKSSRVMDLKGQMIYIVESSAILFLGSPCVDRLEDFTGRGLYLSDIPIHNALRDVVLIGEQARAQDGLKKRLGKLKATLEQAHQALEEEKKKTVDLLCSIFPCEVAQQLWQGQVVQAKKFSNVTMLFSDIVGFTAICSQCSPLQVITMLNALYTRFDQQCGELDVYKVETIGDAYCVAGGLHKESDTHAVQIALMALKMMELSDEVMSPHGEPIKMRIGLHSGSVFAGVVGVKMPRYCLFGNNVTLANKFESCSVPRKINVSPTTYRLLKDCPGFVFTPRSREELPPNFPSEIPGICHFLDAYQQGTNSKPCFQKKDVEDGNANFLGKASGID
# Assay: sGC-HEK-cGMP assay
# Format: cell-based
# Conditions: HEK293 cells, 10 μM SNP, percentage of sGC activity obtained with positive control BAY 41-2272 (= 100%); for Emax at 10 µM: compound at 10 μM; for Emax at 30 µM: compound at 30 μM
# In short: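 HEK293 cells endogenously expressing sGC, preincubated 15 min at 37 °C with 0.5 mM IBMX, then exposed to compound plus 10 μM sodium nitroprusside for 10 min at 37 °C. Reaction stopped and cells lysed with 0.1 M HCl; cGMP quantified by LC/MS against a standard curve; EC50 from concentration-response curves.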
SMILES,Emax at 10 µM [%],Emax at 30 µM [%]
Fc1ccccc1Cn1nc(-c2ccccn2)nc1-c1ccccn1 [Compound I-1],5 to 10,20 to 40
Fc1ccccc1Cn1nc(-c2ncccn2)nc1-c1cscn1 [Compound I-3],0 to 5,20 to 40
Fc1ccccc1Cn1nc(-c2ccccn2)nc1-c1cscn1 [Compound I-4],20 to 40,40 to 60
Fc1ccccc1Cn1nc(-c2ccccn2)nc1-c1ncco1 [Compound I-6],20 to 40,20 to 40
"Fc1ccccc1Cn1nc(-c2ccccn2)nc1-c1cocn1 [Compound I-12, 4-(1-(2-fluorobenzyl)-3-(pyridin-2-yl)-1H-1,2,4-triazol-5-yl)oxazole]",20 to 40,40 to 60
Fc1ccccc1Cn1nc(-c2ccccn2)nc1-c1nccs1 [Compound I-25],20 to 40,40 to 60
Fc1ccccc1Cn1nc(-c2ncccn2)nc1-c1nccs1 [Compound I-30],10 to 20,20 to 40
Fc1ccc(-c2nc(-c3nccs3)n(Cc3ccccc3F)n2)nc1 [Compound I-38],40 to 60,20 to 40

# Next, values leading:
Emax at 10 µM [%],Emax at 30 µM [%],SMILES
20 to 40,10 to 20,Fc1ccccc1Cn1nc(-c2cscn2)nc1-c1nccs1 [Compound I-40]
40 to 60,60 to 80,Fc1ccccc1Cn1nc(-c2nccs2)nc1-c1cscn1 [Compound I-41]
40 to 60,60 to 80,Nc1ccnc(-c2nc(-c3nccs3)n(Cc3ccccc3F)n2)c1 [Compound I-44]
20 to 40,20 to 40,Fc1ccccc1Cn1nc(-c2ncccn2)nc1-c1cocn1 [Compound I-46]
40 to 60,60 to 80,"Nc1ccnc(-c2nc(-c3nccs3)n(Cc3ccccc3F)n2)n1 [Compound I-48, 2-(1-(2-fluorobenzyl)-5-(thiazol-2-yl)-1H-1,2,4-triazol-3-yl)pyrimidin-4-amine]"
20 to 40,20 to 40,"Fc1ccccc1Cn1nc(-c2ccccn2)nc1-n1cncn1 [Compound I-50, 2′-(2-fluorobenzyl)-5′-(pyridin-2-yl)-2′H-1,3′-bi(1′,2′,4-triazole)]"
40 to 60,60 to 80,"Nc1ccnc(-c2nc(-c3cscn3)n(Cc3ccccc3F)n2)c1 [Compound I-53, 2-(1-(2-fluorobenzyl)-5-(thiazol-4-yl)-1H-1,2,4-triazol-3-yl)pyridin-4-amine]"
20 to 40,40 to 60,"COC(=O)N(C)c1c(N)nc(-c2nc(-c3nccs3)n(Cc3ccccc3F)n2)nc1N [Compound I-61, methyl 4,6-diamino-2-(1-(2-fluorobenzyl)-5-(thiazol-2-yl)-1H-1,2,4-triazol-3-yl)pyrimidin-5-yl(methyl)carbamate]"
